Results as given in patent publication US10441630B2, “Topical formulations and uses thereof” (OCULAR TECHNOLOGIES SARL, priority 2012, dated 2019).

Experiments:
[1] = Physical appearance, melt method, HCO-60 and compound 1001; type: physicochemical; conditions: 1001 4 wt %; for Resuspend in water: water at 40° C.; for Physical appearance at room temperature (25° C.): melt mixture
Procedure: (§1) The preparation of MNF encapsulating compound 1001 (neat oil) can be divided into two steps. […] […] To this melt polymer compound 1001 (˜20 mg), thermostated at 40° C., was added and mixed for homogenous distribution. […] (in refrigerator).
(§2) This aqueous solution was allowed to reach room temperature, under natural conditions. The pH of the solution was adjusted to 5.5 and the volume was made up with 2× phosphate buffer saline (pH 5.5) containing octoxynol-40 (0.01 wt %) and PVP-K-90 (1.2 wt %). The formulation was filtered through 0.2 μm nylon filter to remove any foreign material and obtain a clear homogenous aqueous RX-1001 formulation.
(§3) The results obtained for physical appearance of the mixture, different phases, at different temperatures and appearance of final formulation are summarized in Tables 3a-3c.

[2] = Physical appearance, melt method, HCO-40 and compound 1001; type: physicochemical; conditions: 1001 4 wt %
Procedure: as §1, §2, §3

[3] = Mixed nanomicellar size and polydispersity index (Zetasizer) of compound 1001 MNF; type: physicochemical; conditions: HCO-60 4 wt %, Octoxynol-40 0.01 wt %
Procedure: The formulation size and polydispersity index were determined with Zetasizer, Malvern Instruments, NJ. In brief, approximately 1 ml of each formulation was transferred to a cuvette and placed in the instrument. A laser beam of light was used to determine the mixed nanomicellar size.
Mixed nanomicellar formulation encapsulating compound 1001 was prepared by solvent evaporation method in two steps: 1) Preparation of basic formulation and 2) rehydration. In step one, compound 1001, HCO-60 and octoxynol-40 were dissolved separately in 0.3 mL of ethyl acetate. These three solutions were mixed together in 15-mL centrifuge tube. The resultant mixture was vortexed to obtain a homogenous solution. Ethyl acetate solvent was removed with speed vacuum to obtain a solid thin film. The residue was kept overnight under high vacuum at room temperature to remove residual organic solvent. In step two, the resultant thin film was hydrated with 1 mL of double distilled deionized water by vortexing the solution. The rehydrated formulation was suspended in 2× phosphate buffer solution, (pH 6.5). It was filtered through 0.2 μm nylon filter membrane to remove the unentrapped drug aggregates and other foreign particulates. The entrapment of compound 1001 was determined by RP-HPLC following disruption of the micelles and solubilization of 1001 in the diluent (2-propanol) as described below
Weight percent of drug loaded into MNF was determined following the method for entrapment efficiency. Size and polydispersity index of the formulations was determined with Malvern zetasizer as described above. The formulations appear clear and have small size and narrow size distribution.

[4] = Ocular tissue distribution of compound 1001 and RX-10008 by LC-MS/MS; type: in vivo, rabbit
Procedure: A study was conducted in rabbits to test the tolerance and ocular tissue distribution of two nanomicellar formulations of compound 1001 (RX10045) against matching placebos (Table 7a and 7b) and balanced saline solution (BSS). Healthy New Zealand female white rabbits (2-3 kg) were used for this study. One drop (approximately 35 μL) of study drug was applied o.d. 4×/day at two hour intervals for 5 days. One drop of BSS was applied to the contralateral eye.
Selected ocular fluids/tissues (aqueous humor, vitreous humor, conjunctiva, cornea, iris-ciliary body, lens, retina/choroid, and sclera) collected from two rabbits each in the RX-10045 (0.15% in HCO-60, 0.1% in HCO-40) treatment groups, and from one rabbit in each of the matching placebo groups, were assayed for compound 1001 and another resolvin by liquid chromatography-tandem mass spectrometry (LC-MS/MS). Warfarin-d5 and 5-HDA were used as internal standards for the analysis of RX-10045 and its active metabolite, RX-10008, respectively, in aqueous humor and vitreous humor. For the other ocular tissues (solid tissues), warfarin-d5 and phenyl acetic acid-d5 (PAA-d5) were used as the internal standards for compound 1001 and RX-10008, respectively. The analytical range for the solid tissues were 0.125-100 ng. The results of the solid tissue analyses were converted to ng/g by correcting for the amount of tissue analyzed.

[5] = 1001 initially added 0.035 wt %
[6] = 1001 initially added 0.070 wt %
[7] = 1001 initially added 0.095 wt %
[8] = 1001 initially added 0.120 wt %
[9] = 1001 initially added 0.250 wt %
[10] = 1001 initially added 0.300 wt %
[11] = 1001 initially added 0.400 wt %
[12] = rabbits, RX-10045 formulations 4×/day for 5 days

C#CC[C@@H](O)/C=C/C=C/C#C[C@@H](O)CCCC(=O)OC(C)C [compound 1001]
Final formulation (make up with 2X buffer containing 0.01% Oc-40) ([1]; HCO-60 1.0 wt %): Emulsion | Resuspend in water ([1]; HCO-60 1.0 wt %): Emulsion | Final formulation (make up with 2X buffer containing 0.01% Oc-40) ([1]; HCO-60 2.0 wt %): Pale yellow clear | Resuspend in water ([1]; HCO-60 2.0 wt %): Forms pale | Final formulation (make up with 2X buffer containing 0.01% Oc-40) ([1]; HCO-60 2.25 wt %): Pale yellow clear | Resuspend in water ([1]; HCO-60 2.25 wt %): Forms pale | Final formulation (make up with 2X buffer containing 0.01% Oc-40) ([1]; HCO-60 2.5 wt %): Pale yellow clear | Resuspend in water ([1]; HCO-60 2.5 wt %): Forms very | Final formulation (make up with 2X buffer containing 0.01% Oc-40) ([1]; HCO-60 2.75 wt %): Clear solution | Resuspend in water ([1]; HCO-60 2.75 wt %): Forms very | Final formulation (make up with 2X buffer containing 0.01% Oc-40) ([1]; HCO-60 3.0 wt %): Clear solution | Resuspend in water ([1]; HCO-60 3.0 wt %): Clear solution | Final formulation (make up with 2X buffer containing 0.01% Oc-40) ([1]; HCO-60 3.5 wt %): Clear solution | Resuspend in water ([1]; HCO-60 3.5 wt %): Clear solution | Final formulation (make up with 2X buffer containing 0.01% Oc-40) ([1]; HCO-60 4.0 wt %): Clear solution | Resuspend in water ([1]; HCO-60 4.0 wt %): Clear solution | Physical appearance at room temperature (25° C.) ([1]; HCO-60 1.0 wt %): Pale yellow half | Physical appearance at room temperature (25° C.) ([1]; HCO-60 2.0 wt %): Pale yellow | Physical appearance at room temperature (25° C.) ([1]; HCO-60 2.25 wt %): Pale yellow waxy | Physical appearance at room temperature (25° C.) ([1]; HCO-60 2.5 wt %): Pale yellow waxy | Physical appearance at room temperature (25° C.) ([1]; HCO-60 2.75 wt %): Pale yellow waxy | Physical appearance at room temperature (25° C.) ([1]; HCO-60 3.0 wt %): Pale yellow waxy | Physical appearance at room temperature (25° C.) ([1]; HCO-60 3.5 wt %): Pale yellow waxy | Physical appearance at room temperature (25° C.) ([1]; HCO-60 4.0 wt %): Pale yellow waxy | Final formulation ([2]; HCO-40 0.5 wt %): Emulsion | Mixture physical appearance at room temperature (25° C.) ([2]; HCO-40 0.5 wt %): Viscous yellow liquid | Resuspend in water ([2]; HCO-40 0.5 wt %): Emulsion | Final formulation ([2]; HCO-40 0.75 wt %): Emulsion | Mixture physical appearance at room temperature (25° C.) ([2]; HCO-40 0.75 wt %): Viscous yellow liquid | Resuspend in water ([2]; HCO-40 0.75 wt %): Emulsion | Final formulation ([2]; HCO-40 1.0 wt %): Emulsion | Mixture physical appearance at room temperature (25° C.) ([2]; HCO-40 1.0 wt %): Viscous yellow liquid | Resuspend in water ([2]; HCO-40 1.0 wt %): Emulsion | Final formulation ([2]; HCO-40 1.25 wt %): Emulsion | Mixture physical appearance at room temperature (25° C.) ([2]; HCO-40 1.25 wt %): Viscous yellow liquid | Resuspend in water ([2]; HCO-40 1.25 wt %): Emulsion | Final formulation ([2]; HCO-40 1.5 wt %): Emulsion | Mixture physical appearance at room temperature (25° C.) ([2]; HCO-40 1.5 wt %): Viscous yellow liquid | Resuspend in water ([2]; HCO-40 1.5 wt %): Emulsion | Final formulation ([2]; HCO-40 1.75 wt %): Emulsion | Mixture physical appearance at room temperature (25° C.) ([2]; HCO-40 1.75 wt %): Viscous yellow liquid | Resuspend in water ([2]; HCO-40 1.75 wt %): Emulsion | Final formulation ([2]; HCO-40 2.0 wt %): Emulsion | Mixture physical appearance at room temperature (25° C.) ([2]; HCO-40 2.0 wt %): Viscous yellow liquid | Resuspend in water ([2]; HCO-40 2.0 wt %): Emulsion | Final formulation ([2]; HCO-40 2.25 wt %): Emulsion | Mixture physical appearance at room temperature (25° C.) ([2]; HCO-40 2.25 wt %): Viscous yellow liquid | Resuspend in water ([2]; HCO-40 2.25 wt %): Emulsion | Final formulation ([2]; HCO-40 2.5 wt %): Yellow color | Mixture physical appearance at room temperature (25° C.) ([2]; HCO-40 2.5 wt %): Viscous yellow liquid | Resuspend in water ([2]; HCO-40 2.5 wt %): Yellow | Final formulation ([2]; HCO-40 2.75 wt %): Pale yellow | Mixture physical appearance at room temperature (25° C.) ([2]; HCO-40 2.75 wt %): Viscous yellow liquid | Resuspend in water ([2]; HCO-40 2.75 wt %): Pale | Final formulation ([2]; HCO-40 3.0 wt %): Clear solution | Mixture physical appearance at room temperature (25° C.) ([2]; HCO-40 3.0 wt %): Viscous yellow liquid | Resuspend in water ([2]; HCO-40 3.0 wt %): Clear | Final formulation ([2]; HCO-40 4.0 wt %): Clear solution | Mixture physical appearance at room temperature (25° C.) ([2]; HCO-40 4.0 wt %): Viscous yellow liquid | Resuspend in water ([2]; HCO-40 4.0 wt %): Clear | Mixed nanomicellar size (nm) [3, 5]: 24.90 nm | Polydispersity Index [3, 5]: 0.442 | Mixed nanomicellar size (nm) [3, 6]: 25.01 nm | Polydispersity Index [3, 6]: 0.414 | Mixed nanomicellar size (nm) [3, 7]: 24.79 nm | Polydispersity Index [3, 7]: 0.415 | Mixed nanomicellar size (nm) [3, 8]: 18.28 nm | Polydispersity Index [3, 8]: 0.320 | Mixed nanomicellar size (nm) [3, 9]: 18.37 nm | Polydispersity Index [3, 9]: 0.331 | Mixed nanomicellar size (nm) [3, 10]: 18.29 nm | Polydispersity Index [3, 10]: 0.345 | Mixed nanomicellar size (nm) [3, 11]: 18.2 nm | Polydispersity Index [3, 11]: 0.333 | hydrolysis to active metabolite RX-10008 ([4]; rabbit ocular tissues): rapidly hydrolyzed | compound 1001 in the majority of ocular tissues [4, 12]: either not detected or was below the quantitation limit | concentrations of the compound 1001 ester prodrug in the sclera and conjunctiva [4, 12]: sporadic, relatively low
